Assay results: paper PMC9090738, “An anti-diabetic drug targets NEET (CISD) proteins through destabilization of their [2Fe-2S] clusters” (Communications Biology, 2022)

T1: mNT (mitoNEET) (Homo sapiens, UniProt Q9NZ45)
T1 construct: gene CISD1; soluble cytosolic part, residues 33-108; pET-28a+, E. coli BL21-RIL, Ni-agarose and size exclusion; [2Fe-2S] holo form; homodimer
T1 sequence (Q9NZ45 33-108): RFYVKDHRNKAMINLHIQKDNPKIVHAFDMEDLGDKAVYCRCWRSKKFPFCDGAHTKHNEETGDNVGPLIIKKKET

T2: NAF-1 (Homo sapiens, UniProt Q8N5K1)
T2 construct: gene CISD2; soluble cytosolic part, residues 57-135; pET-28a+, E. coli BL21-RIL, Ni-agarose and size exclusion; [2Fe-2S] holo form; homodimer
T2 sequence (Q8N5K1 57-135): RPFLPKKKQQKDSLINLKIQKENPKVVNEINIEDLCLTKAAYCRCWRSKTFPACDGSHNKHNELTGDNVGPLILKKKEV

B1: mitoNEET soluble part (residue 33-108) (domain or fragment, human, UniProt Q9NZ45 33-108, looked up)
chain: T1 sequence (Q9NZ45 33-108)
notes: mitoNEET (mNT), human NEET protein, soluble part, residues 33-108; Each monomer carries a [2Fe-2S] cluster; Crystallised with the small molecule M1; also called mNT; source: Escherichia coli BL21-RIL, purified (Ni-agarose, size exclusion chromatography)
B2: NAF-1 soluble part (residue 57-135) (domain or fragment, human, UniProt Q8N5K1 57-135, looked up)
chain: T2 sequence (Q8N5K1 57-135)
notes: NAF-1, human NEET protein encoded by CISD2, soluble part, residues 57-135; Each monomer carries a [2Fe-2S] cluster; Crystallised with the small molecule M1; source: Escherichia coli BL21-RIL, purified (Ni-agarose, size exclusion chromatography)

Assays:
mNT (mitoNEET) = target: T1, mNT (mitoNEET); assay: isothermal titration calorimetry, one-site model; format: binding
NAF-1 = target: T2, NAF-1; assay: isothermal titration calorimetry, one-site model; format: binding
[1] = target: the molecule itself; assay: crystal structure; co-crystallised with the small molecule M1 (3.3 mM, 5% DMSO), sitting drop, 32% PEG-3000, 100 mM Tris-HCl pH 8.0, 100 mM NaCl, 20 °C; two molecules (mNT) or two dimers (NAF-1) in the asymmetric unit

Molecule | Kd (mNT (mitoNEET)) [µM] | Kd (NAF-1) [µM] | binding result [1]
O=C(Nc1scc(C2CCc3ccccc3C2)c1C(=O)O)c1ccccc1 (racemic) [M1] | 5.93 ± 0.53 | 7.2 ± 0.99 | 
B1 |  |  | binds
B2 |  |  | binds
